Source: ChEMBL document CHEMBL3044870, “Effect of clomazone on various market classes of dry beans” (Crop Prot, 2007)

What was measured:
Assay type in all cases: organism-based
Settings in all cases: in vivo
Phaseolus vulgaris [1] = assay: Phytotoxicity against Phaseolus vulgaris (pink beans) assessed as crop injury
Phaseolus vulgaris [2] = assay: Phytotoxicity against Phaseolus vulgaris (kidney bean) assessed as crop injury
Phaseolus vulgaris [3] = assay: Phytotoxicity against Phaseolus vulgaris (black beans) assessed as reduction in shoot dry weight relative to control; design: scale not given: the % may be the effect or the level left
Phaseolus vulgaris [4] = assay: Phytotoxicity against Phaseolus vulgaris (white beans) assessed as reduction in plant height applied pre-emergence relative to control; design: scale not given: the % may be the effect or the level left
Phaseolus vulgaris [5] = assay: Phytotoxicity against Phaseolus vulgaris (black beans) assessed as reduction in plant height applied pre-emergence relative to control; design: scale not given: the % may be the effect or the level left
Phaseolus vulgaris [6] = assay: Phytotoxicity against Phaseolus vulgaris (white beans) assessed as crop injury
Phaseolus vulgaris [7] = assay: Phytotoxicity against yellow eye bean assessed as reduction in shoot dry weight applied pre-emergence relative to control; design: scale not given: the % may be the effect or the level left
Phaseolus vulgaris [8] = assay: Phytotoxicity against Phaseolus vulgaris (white beans) assessed as reduction in shoot dry weight applied pre-emergence relative to control; design: scale not given: the % may be the effect or the level left
Phaseolus vulgaris [9] = assay: Phytotoxicity against Phaseolus vulgaris (pinto beans)s assessed as reduction in shoot dry weight applied pre-emergence relative to control; design: scale not given: the % may be the effect or the level left
Phaseolus vulgaris [10] = assay: Phytotoxicity against Phaseolus vulgaris (otebo beans) assessed as reduction in shoot dry weight applied pre-emergence relative to control; design: scale not given: the % may be the effect or the level left
Phaseolus vulgaris [11] = assay: Phytotoxicity against Phaseolus vulgaris (black beans) assessed as reduction in shoot dry weight applied pre-emergence relative to control; design: scale not given: the % may be the effect or the level left
Phaseolus vulgaris [12] = assay: Phytotoxicity against yellow eye bean assessed as reduction in plant height applied pre-emergence relative to control; design: scale not given: the % may be the effect or the level left
Phaseolus vulgaris [13] = assay: Phytotoxicity against Phaseolus vulgaris (pinto beans) assessed as reduction in plant height applied pre-emergence relative to control; design: scale not given: the % may be the effect or the level left
Phaseolus vulgaris [14] = assay: Phytotoxicity against Phaseolus vulgaris (otebo beans) assessed as reduction in plant height applied pre-emergence relative to control; design: scale not given: the % may be the effect or the level left
Phaseolus vulgaris [15] = assay: Phytotoxicity against Phaseolus vulgaris (cranberry beans) assessed as crop injury

Compound	Activity (Phaseolus vulgaris [2]) [%]	Activity (Phaseolus vulgaris [4]) [%]	Activity (Phaseolus vulgaris [5]) [%]	Activity (Phaseolus vulgaris [6]) [%]	Activity (Phaseolus vulgaris [15]) [%]	other results
CS(=O)(=O)NC(=O)c1cc(Oc2ccc(C(F)(F)F)cc2Cl)ccc1[N+](=O)[O-] [FOMESAFEN]	1	–	–	–	–	Activity (Phaseolus vulgaris [1]): 5%
CCc1cccc(C)c1N(C(=O)CCl)[C@@H](C)COC [S-METOLACHLOR]	–	–	–	–	–	Activity (Phaseolus vulgaris [3]): 16%
CCc1cnc(C2=NC(C)(C(C)C)C(=O)N2)c(C(=O)O)c1 (stereo not given) [IMAZETHAPYR]	2	40	40	11	–	–
CON(C)C(=O)Nc1ccc(Cl)c(Cl)c1 [LINURON]	–	24	24	49	4	Activity (Phaseolus vulgaris [7]): 26%; Activity (Phaseolus vulgaris [8]): 26%; Activity (Phaseolus vulgaris [9]): 26%; Activity (Phaseolus vulgaris [10]): 26%; Activity (Phaseolus vulgaris [11]): 26%; Activity (Phaseolus vulgaris [12]): 24%; Activity (Phaseolus vulgaris [13]): 24%; Activity (Phaseolus vulgaris [14]): 24%
C#CCN1C(=O)COc2cc(F)c(N3C(=O)C4=C(CCCC4)C3=O)cc21 [FLUMIOXAZIN]	–	28	23	17	4	–
CCc1cccc(CC)c1N(COC)C(=O)CCl [ALACHLOR]	0.5	–	–	6	–	–
